20 compounds from US5736523A, “Antineoplastic heteronapthoquinones” (Biochem Pharma Inc., priority 1995, dated 1998) can be followed below.

Counter-ions that a name gives are not always drawn.

One test concerns SKVLB (Ovarian; multidrug resistant). The experiment in a line: In vitro cytotoxicity, microculture tetrazolium (MTT) assay, SKVLB. The test is classed as cell-based, human. The following applies: SKVLB cell line. Here is the method: In Vitro Cytotoxicity--Microculture Tetrazolium Assay
The microculture tetrazolium assay was used to test in vitro cytotoxicity. This assay is described in Plumb, J. A. et al., 1989 Cancer Research 49, 4435-4440, which is herein incorporated by reference. The cytotoxicity of compounds towards tumor cells is measured in vitro using the assay. This assay method is based upon the ability of live, but not dead cells to reduce the yellow water soluble dye 3-(4;5-dimethylthiazol-2-yl)-2,5-diphenyltetrazolium bromide (MTT) to its water insoluble purple formazan product.
Human Tumor Cell lines, used were:
SKVLB (Ovarian; multidrug resistant)--Dr. V. Ling, Ontario
The cells were maintained in exponential growth in culture in minimal essential media (MEM) supplemented with non-essential amino acids, and containing 15% (v/v) fetal bovine serum, 5 mM L-glutamine, 1 mM sodium pyruvate, and 0.1 U/ml insulin. All cell lines were grown at 37° C. in an atmosphere of 5% CO2 in air.
Test compounds: 20 mM in DMSO and diluted to a final concentration of 200 μM in culture medium before use.
The following is the generic description of the assay method. It should be noted that although the conditions described work well with the cells listed above, the initial plating density and the MTT concentration used should be verified for each new cell line used to test compounds.
For each assay, doxorubicin is included as an inter-assay standard. This allows us to monitor the behaviour of the assay in general, and in particular, to check that the SKVLB line has maintained its resistant phenotype.
The plate layout is done in the following manner: The assays are carried out in 96-well (8 well×12 well) microtiter plates. Serial dilutions of the compound are tested along the length of the plate. A 1:3 serial dilution of compound in culture medium covers a concentration range from 100 μM to 1.7 nM. Each concentration of compound is tested in quadruplet, allowing two compounds to be tested per plate. Wells containing no cells (blank) and cells with no test compound (control) are included on each plate.
Cells are plated out in 100 μl of culture medium in the microtiter plates at a density of around 1,500-4,000 cells per well. The plates are incubated overnight to allow the cells to become adherent after which the test compound is added (100 μl of appropriate dilution per well). The cells are incubated with test compound at 37° C. for 48 h after which the compound is replaced with fresh medium. After a further 48 h incubation at 37° C., 50 μl of MTT solution (2 mg/ml) is added to each well. The plates are incubated in the dark for 4 h at 37° C. after which the medium is removed. The MTT formazan product is extracted from the cells by the addition of 200 μl DMSO followed by 50 μl of Sorensen's buffer. The plates are shaken briefly and the absorbance at 570 nm is read using a Molecular Devices UV max plate reader. Curves are fit to the MTT assay data using a four parameter logistic equation, and the data are normalized to fit a 0% to 100% survival scale.
With `COC1OC(C(=O)NCCCN(C)C)=CC2=C1C(=O)c1ccccc1C2=O` (stereo not drawn) [BCH2051, 1-Methoxy-5,10-dioxo-5,10-dihydro-1H-naphtho[2,3-c]pyran-3-[N-(3-dimethylamino-propyl)carboxamide] hydrochloride monohydrate], the “multidrug resistance / effectiveness in multidrug resistant cell line” value is “significantly avoiding multidrug resistance”.

The same test, now with this note: in vitro.
Take `COC1OC(C(=O)NCCCN(C)C)=CC2=C1C(=O)c1ccccc1C2=O` (stereo not drawn) [BCH2051, 1-Methoxy-5,10-dioxo-5,10-dihydro-1H-naphtho[2,3-c]pyran-3-[N-(3-dimethylamino-propyl)carboxamide] hydrochloride monohydrate]: the “in vitro antitumor potency” value is recorded as “intense in vitro antitumor potency”.

The test is the same for the next values; noted with them: ratio SKVLB / SKOV3.
As to `CC(=O)[C@H]1CC2=C(C(=O)c3ccccc3C2=O)[C@H](O[C@@H]2O[C@@H](C)[C@@H](O)[C@@H](O)[C@H]2I)O1` [BCH2014, (1'S,1S,3R)-methyl-(1-[2',6'-dideoxy-3',4'-dihydroxy-2'-iodo-L-lyxohexopyranose]-5,10-dioxo-3,4,5,10-tetrahydronaphtho [2,3-c]-pyran-3-yl)-ketone], the VLB/OV3 came out at 1.85. For `CC(=O)[C@@H]1CC2=C(C(=O)c3ccccc3C2=O)[C@@H](O[C@@H]2O[C@@H](C)[C@@H](O)[C@@H](O)[C@H]2I)O1` [BCH2015, (1'S,1R,3S)-methyl-(1-[2',6'-dideoxy-3',4'-dihydroxy-2'-iodo-L-lyxohexopyranose]-5,10-dioxo-3,4,5,10-tetrahydronaphtho [2,3-c]-pyran-3-yl) ketone], the VLB/OV3 is on record as 3.19.

As to `CC[C@H]1CC2=C(C(=O)c3ccccc3C2=O)[C@H](O[C@H]2C[C@H](NC(=O)C(F)(F)F)[C@H](O)[C@H](C)O2)O1` [BCH2020, (1'S,1S,3S)-5,10-dioxo-3-ethyl-1-(2',3',6'-trideoxy-3'-trifluoroacetamido-L-lyxohexopyranose)-3,4,5,10-tetrahydro-1H-naphtho-[2,3-c]-pyran], the VLB/OV3 was 2.31. For `CC[C@H]1CC2=C(C(=O)c3ccccc3C2=O)[C@H](O[C@H]2C[C@H](N)[C@H](O)[C@H](C)O2)O1` [BCH2021, (1'S,1S,3S)-5,10-dioxo-3-ethyl-1-(2',3',6'-trideoxy-3'-amino-L-lyxohexopyranose)-3,4,5,10-tetrahydro-1H-naphtho-[2,3-c]-pyran], the VLB/OV3 worked out at 3.74. With `CC(=O)[C@H]1CC2=C(C(=O)c3ccccc3C2=O)[C@H](O[C@@H]2O[C@@H](C)[C@@H](O)[C@@H](NC(=O)C(F)(F)F)C2I)O1` (stereo partly drawn) [BCH2022, (1'S,1S,3R)-methyl-(1-[2',3',6'-trideoxy-2'-iodo-3'-trifluoroacetamido-4'-hydroxy-L-lyxohexopyranose]-5,10-dioxo-3,4,5,10-tetrahydronaphtho-[2,3-c]-pyran-3-yl) ketone], the VLB/OV3 worked out at 4.23. `CC(=O)[C@@H]1CC2=C(C(=O)c3ccccc3C2=O)[C@@H](O[C@@H]2O[C@@H](C)[C@@H](O)[C@@H](NC(=O)C(F)(F)F)C2I)O1` (stereo partly drawn) [BCH2023, (1'S,1R,3S)-methyl-(1-[2',3',6'-trideoxy-2'-iodo-3'-trifluoroacetamido-4'-hydroxy-L-lyxohexopyranose]-5,10-dioxo-3,4,5,10-tetrahydronaphtho-[2,3-c]-pyran-3-yl) ketone]: the VLB/OV3 is given as 4.39.

Take `C[C@@H]1O[C@@H](O[C@H]2O[C@H](COc3ccccc3)CC3=C2C(=O)c2ccccc2C3=O)C[C@H](NC(=O)C(F)(F)F)[C@@H]1O` [BCH2032, (1'S,1R,3S)-5,10-dioxo-3-phenyloxymethyl-1-(2',3',6'-trideoxy-3'-trifluoroacetamido-L-lyxohexopyranose)-3,4,5,10-tetrahydro-1H-naphtho-[2,3-c] pyran]: the VLB/OV3 is 2-2.93. On the same count and under the same terms, the result for `CC(=O)[C@@H]1CC2=C(C(=O)c3ccccc3C2=O)[C@@H](O[C@H]2C[C@H](NC(=O)C(F)(F)F)[C@H](O)[C@H](C)O2)S1` [BCH2037, (1'S,1S,3S)-1-(3'-trifluoroacetamido-2',3',6'-trideoxy-L-lyxohexopyranose)-5,10-dioxo-3,4,5,10-tetrahydro-1H-naphtho-[2,3-c]-thiopyran] reads 0.93-6.41. As to `COC1OC(C(=O)Nc2ccccc2)=CC2=C1C(=O)c1ccccc1C2=O` (stereo not drawn) [BCH2044, 1-methoxy-3-N-anilinylcarbonyl-5,10-dioxo-5,10-dihydro-1H-naphtho-[2,3-c]-pyran], the VLB/OV3 turned out to be 3.55. For `CC(=O)[C@H]1CC2=C(C(=O)c3ccccc3C2=O)[C@H](O[C@H]2C[C@H](NC(=O)C(F)(F)F)[C@H](Br)[C@H](C)O2)O1` [BCH2047, (1S,3R,1'S)-Methyl-(1-[2',3',4',6'-tetradeoxy-3'-trifluoroacetamido-4'-bromo-L-lyxohexopyranose]-5,10-dioxo-3,4,5,10-tetrahydronaphthaleno-[2,3-c]pyran-3-yl) ketone], the VLB/OV3 was found to be 31.

For the compound `CC(C)[C@@H]1CC2=C(C(=O)c3ccccc3C2=O)[C@@H](O[C@H]2C[C@H](NC(=O)C(F)(F)F)[C@H](O)[C@H](C)O2)O1` [BCH2053, (1'S,1R,3S)-5,10-dioxo-3-isopropyl-1-(2',3',6'-trideoxy-3'-trifluoroacetamido-L-lyxohexopyranose)-3,4,5,10-tetrahydro-1H-naphtho-[2,3-c]-pyran], the VLB/OV3 came out at 4.48. Still for that read-out and setting: then `CO[C@H]1C[C@H](O[C@H]2O[C@H](C(C)=O)CC3=C2C(=O)c2ccccc2C3=O)O[C@@H](C)[C@H]1OS(C)(=O)=O` [BCH2070, (1'-S,1-R,3-S)-methyl-(1-[2',3',4',6' tetradeoxy-3'-methoxy-4'-O-methanesulfonyl-L-lyxohexopyranose)-5,10-dioxo-3,4,5,10 tetrahydronaphtho-[2,3-c]pyran-3-yl) ketone], with 14.34-15. Consider `COC(=O)[C@@]1(C)CC2=C(C(=O)c3ccccc3C2=O)[C@H](O[C@H]2C[C@H](NC(=O)C(F)(F)F)[C@H](O)[C@H](C)O2)O1` [BCH2076, (1'S,1S,3R)-1-(3'-trifluoroacetamido-2',3',6'-trideoxy-lyxo-L-hexopyranose)-3-methoxycarbonyl-3-methyl-3,4,5,10-tetrahydro-5,10-dioxonaphtho-[2,3-c] pyran], for which the VLB/OV3 was determined as 9. For the compound `COC(=O)[C@]1(C)CC2=C(C(=O)c3ccccc3C2=O)[C@@H](O[C@H]2C[C@H](NC(=O)C(F)(F)F)[C@H](O)[C@H](C)O2)O1` [BCH2077, (1'S,1R,3S)-1-(3'-trifluoroacetamido-2',3',6'-trideoxy-L-lyxohexopyranose)-3-methoxycarbonyl-3-methyl-3,4,5,10-tetrahydro-5,10-dioxo-1H-naphtho-[2,3-c] pyran], the VLB/OV3 was found to be 11. Consider `COC(=O)[C@]1(C)CC2=C(C(=O)c3ccccc3C2=O)[C@H](O[C@H]2C[C@H](NC(=O)C(F)(F)F)[C@H](O)[C@H](C)O2)O1` [BCH2081, (1'S,1S,3S)-1-(3'-trifluoroacetamido-2',3',6'-trideoxylyxohexopyranose)-3-methoxycarbonyl-3-methyl-5,10-dioxo-4,5,10-trihydro-1H-naphtho-[2,3-c]-pyran], for which the VLB/OV3 is recorded as 15. Consider `CC(=O)[C@@]1(C)CC2=C(C(=O)c3ccccc3C2=O)[C@H](O[C@H]2C[C@H](NC(=O)C(F)(F)F)[C@H](O)[C@H](C)O2)O1` [BCH2082, (1'S,1S,3R)-1-(3'-trifluoroacetamido-2',3',6-trideoxy-L-lyxohexopyranose)-3-acetyl-3-methyl-5,10-dioxo-4,5,10-trihydro-1H-naphtho-[2,3-c]-pyran], for which the VLB/OV3 is reported as 3.

With `CC(=O)[C@]1(C)CC2=C(C(=O)c3ccccc3C2=O)[C@H](O[C@H]2C[C@H](NC(=O)C(F)(F)F)[C@H](O)[C@H](C)O2)O1` [BCH2090, (1'S,1S,3S)-1-(3'-trifluoroacetamido-2',3',6'-trideoxy-L-lyxohexopyranose)-3-acetyl-3-methyl-5,10-dioxo-4,5,10-trihydro-1H-naphtho-[2,3-c]-pyran], the VLB/OV3 was 3.29. On to `CC[C@H]1CO[C@H](O[C@H]2C[C@H](NC(=O)C(F)(F)F)[C@H](O)[C@H](C)O2)C2=C1C(=O)c1ccccc1C2=O` [BCH2091, (1'S,1R,4R)-5,10-dioxo-4-ethyl-1-(2',3',6'-trideoxy-3'-trifluoroacetamido-L-lyxohexopyranose)-3,4,5,10-tetrahydro-1H-naphtho-[2,3-c] pyran], for which the VLB/OV3 is on record as 3. As for `CC(=O)O[C@@H]1[C@H](C)O[C@@H](O[C@@H]2O[C@@H](C(C)=O)CC3=C2C(=O)c2ccccc2C3=O)C(Br)[C@@H]1OC(C)=O` (stereo partly drawn) [BCH2099, (1'S,1S,3R)-methyl-(1-[2',6'-dideoxy-3',4'-diacetoxy-2'-bromo-L-lyxohexopyranose]-5,10-dioxo-3,4,5,10-tetrahydronaphtho-[2,3-c]-pyran-3-yl) ketone], the VLB/OV3 is given as 0.77-2.
